Patent publication US9428477B2, “Trans-2-decenoic acid derivative and drug containing same” (NIPPON ZOKI PHARMACEUTICAL CO., LTD., priority 2012, dated 2016)

Tests used:
[1] = system: rats with paclitaxel-induced peripheral nerve disorder; experiment: Rat peripheral nerve disorder induced by paclitaxel, von Frey test; type: in vivo; conditions: ip, test drug intraperitoneally, single dose, higher of values 1 and 5 hours after administration, mechanical stimulus of right hind limb, normal threshold 15, read-out: Recovery Rate of 50% Reaction Threshold Value
Protocol: The effects of the compounds of the present invention were evaluated for a peripheral nerve disorder which is a side effect induced by the administration of an anti-cancer agent paclitaxel, such as hyperesthesia including allodynia induced by mechanical stimuli, which is a severe pain induced by such tactile stimuli which usually cause no pains. The compound of the present invention was intraperitoneally administered to rats as a test drug to conduct a von Frey test.
Male SD rats of six weeks age (six rats per group) were used as experimental animals, and paclitaxel (2 mg/kg) was intraperitoneally administered every other day for four times in total to prepare rats with paclitaxel-induced peripheral nerve disorder. During the period of 18 to 25 days or during the period of 20 to 27 days after the initiation of paclitaxel administration, the test drug was intraperitoneally administered in a single dose of […], and the following von Frey test was conducted.
(§1) The rats of the above (1) were placed in a transparent acrylic cage with a wire-meshed floor and habituated for about three minutes, and the 50% reaction threshold values to the mechanical stimulus of right hind limb were measured before administration of the test drug and after 1 and 5 hours from the initiation of the administration.
(§2) The measurement was conducted using von Frey filaments (manufactured by North Coast Medical Inc.) in accordance with the methods of Chaplan, et al. (Journal of Neuroscience Methods, 53(1), 55-63, 1994) and Dixon, et al. (Annual Review of Pharmacology and Toxicology, 20, 441-462, 1980). […] The case where the rat escaped at the instance of removing the filament was also called positive. When the positive reaction was found, stimulus was applied similarly with a filament of one rank weaker, and in the absence of the reaction, stimulus was similarly applied with a filament of one rank stronger, and a point where the reaction changed from negative to positive or from positive to negative was called the first two reactions. Subsequently, stimuli were applied for continuously four times by the same up-down method. A 50% reaction threshold value to the mechanical stimulus was measured using the reaction to the six stimuli in total and then (mean value)±(standard error) for each group was calculated. Incidentally, when stimulus reached to a load of 15.0 g without positive reaction, or when positive reaction continued to a load of 0.4 g, 15.0 g or 0.25 g was adopted as each of 50% reaction threshold values. With regard to the higher 50% reaction threshold value between the 50% threshold values after 1 hour and 5 hours from administration of a test drug, a recovery rate (%) of the 50% reaction threshold value was calculated by the following expression in which 15 was taken as a normal threshold value.
Recovery rate (%) of 50% reaction threshold value=[(50% reaction threshold value after 1 hour or 5 hours from administration of test drug)−(50% reaction threshold value before administration of test drug)]/[(Normal threshold value)−(50% reaction threshold value before administration of test drug)]×100

MIA-induced OA rats = experiment: Analgesic action against osteoarthritis model rats (MIA-induced OA), von Frey test; type: in vivo, rat; conditions: intraperitoneally, single dose of 500 μg/kg, hyperalgesia of OA induced by MIA
Protocol: as §1
as §2, with “value. […]” for “value.”
A 50% reaction threshold value to the mechanical stimulus of male Wistar rats of six weeks age was measured (the measurement method will be mentioned later), and a normal control group was selected. […]
With regard to the male Wistar rats of six weeks age used as experimental animals except the normal control group, their 50% reaction threshold values to the mechanical stimulus (the measuring method will be mentioned later) and body weights were measured after 24 days from the administration of MIA mentioned in (1) and then 3 groups, i.e. a normal control group, an onset control group, and a test drug-administered group, six rats per group, were organized. […]

MAP kinase (ERK 1/2) = experiment: Activation (phosphorylation) of MAP kinase in cultured cerebral cortex nerve cells, Western immunoblotting; type: cell-based; conditions: 0.5 h; fetal rat cerebral cortex nerve cells; compound 250 μg/ml in 0.1% DMSO; 30 minutes; relative to control = 1.00; read-out: Ratio of pMAPK to MAPK
Protocol: With regard to the compounds of the present invention, the activation of MAP kinase (ERK 1/2) was measured in accordance with a Western immunoblotting in the following manner.
Nerve cells were dispersed from cerebral cortex of a fetal rat of 17 days age, and the nerve cells were cultured for one day in a Dulbecco's modified Eagle's medium (DMEM) containing 5% fetal bovine serum. The culture medium was exchanged with a serum-free medium (B27 supplemented Neurobasal; Invitrogen), and the nerve cells were cultured at the density of 20,000 to 40,000 cells/cm^2 in a polyornithine-coated culture dish.
After three days, the compound of the present invention was added, and the culture was continued for 30 minutes. Thereafter, the cells were recovered on ice using a solution containing a phosphatase inhibitor where Tris-HCl buffer was used as a base. The protein concentration of the resulting cell extract was quantified with a BCA Protein Assay Kit (Takara Bio Co., Ltd.), and a certain amount of the protein (3 μg for the measurement of MAP kinase and 5 μg for the measurement of phosphorylated MAP kinase) was subjected to polyacrylamide gel electrophoresis. The protein was transferred from the electrophoresed gel to a PVDF membrane, and Western immunoblotting was carried out using each of an anti-MAP kinase antibody (Cell Signaling Technology) and an anti-phosphorylated MAP kinase antibody (Cell Signaling Technology) of the primary antibody.
Subsequently, the reaction with an alkaline phosphatase-labeled anti-rabbit IgG antibody (Promega) of the secondary antibody was carried out, and the enzymatic activity was allowed to develop color, to measure MAP kinase (MAPK) and the phosphorylated MAP kinase (pMAPK).
Incidentally, each of the compounds of the present invention was dissolved in 0.1% DMSO to adjust its concentration to 250 μg/ml. As to the control, 0.1% DMSO was added.
The intensity of the concentration of the bands of eletrophoresed the gel was calculated and quantified using Image J (K. K. Bioarts). The numerical values for the MAPK when using the compounds of the present invention were each divided by the numerical value for the MAPK of the control, and the numerical values for the pMAPK when using the compounds of the present invention were divided by the numerical value for the pMAPK of the control, whereby a ratio of the MAPK when using each of the compounds of the present invention to the control, and a ratio of the pMAPK when using each of the compounds of the present invention to the control were obtained. Subsequently, the ratio of the pMAPK to the control obtained was divided by the ratio of the MAPK to the control to obtain a ratio of the pMAPK to the MAPK.

| SMILES | change in vivo at 0.3 mg/kg [1] [%] | Recovery Rate of 50% Reaction Threshold (MIA-induced OA rats) [%] | fold induction at 250 µg/mL (MAP kinase (ERK 1/2)) | melting point [°C] |
| --- | --- | --- | --- | --- |
| CCCCCCC/C=C/C(=O)N1CCN(CCN(C)C)CC1 [Compound 22, 1-((E)-2-Decenoyl)-4-[2-(dimethylamino)ethyl]piperazine] | 29.7 | 13.2 |  |  |
| CCCCCCC/C=C/C(=O)N1CCN(CCc2ccccc2)CC1 [Compound 27, 1-((E)-2-Decenoyl)-4-(2-phenylethyl)piperazine] | 69.1 |  | 1.44 | 33 to 34 |
| CCCCCCC/C=C/C(=O)N1CCN(CCC(=O)O)CC1 [Compound 21, 3-[4-((E)-2-decenoyl)piperazin-1-yl]propionic acid] | 34.8 |  | 1.54 | 53 to 55 |
| CCCCCCC/C=C/C(=O)N1CCC[C@H]1C(=O)O [Compound 2, (S)-1-((E)-2-Decenoyl)pyrrolidine-2-carboxylic acid] | 23.5 |  | 1.28 |  |
| CCCCCCC/C=C/C(=O)N1CCSCC1 [Compound 18, 4-((E)-2-decenoyl)thiomorpholine] | 48.9 |  | 1.28 |  |
| CCCCCCC/C=C/C(=O)N1CCC(=O)CC1 [Compound 7, 1-((E)-2-decenoyl)piperidin-4-one] | 45.2 |  | 1.62 |  |
| CCCCCCC/C=C/C(=O)N1CCC(C)CC1 [Compound 6, 1-((E)-2-Decenoyl)-4-methylpiperidine] | 33.8 |  | 1.71 |  |
| CCCCCCC/C=C/C(=O)N1CCN(CCN2CCCCC2)CC1 [Compound 24, 1-((E)-2-Decenoyl)-4-(2-piperidin-1-ylethyl)piperazine] | 49.7 |  | 2.58 |  |
| CCCCCCC/C=C/C(=O)N1CCSC1 [Compound 4, 3-((E)-2-Decenoyl)thiazolidine] | 43.7 |  | 1.47 |  |
| CCCCCCC/C=C/C(=O)N1CCN(c2ccccc2)CC1 [Compound 25, 1-((E)-2-Decenoyl)-4-phenylpiperazine] | 55.3 | 18.9 |  |  |
| CCCCCCC/C=C/C(=O)N1CCC(CN(CC)CC)CC1 [Compound 14, 1-((E)-2-Decenoyl)-4-diethylaminomethylpiperidine] | 26 |  | 2.08 |  |
| CCCCCCC/C=C/C(=O)N1CCN(C2CCCCC2)CC1 [Compound 23, 4-Cyclohexyl-1-((E)-2-decenoyl)piperazine] | 33 |  | 1.3 | 33 to 34 |
| CCCCCCC/C=C/C(=O)N1CCCCC1 [Compound 5, 1-((E)-2-Decenoyl)piperidine] | 41.6 | 35.8 |  |  |
| CCCCCCC/C=C/C(=O)N1CCC(N(CC)CC)CC1 [Compound 13, 1-((E)-2-Decenoyl)-4-diethylaminopiperidine] | 23.2 |  | 1.63 |  |
| CCCCCCC/C=C/C(=O)N1CCN(Cc2ccc(C(=O)O)cc2)CC1 [Compound 48, 4-[[4-((E)-2-Decenoyl)piperazin-1-yl]methyl]benzoic acid] | 56.4 |  |  | 114 to 116 |
| CCCCCCC/C=C/C(=O)N1CCC(CC(=O)O)CC1 [Compound 35, 2-(1-((E)-2-Decenoyl)-4-piperidyl)acetic acid] | 41.2 |  |  | 65 to 66 |
| CCCCCCC/C=C/C(=O)N1CCN(CCCC(=O)O)CC1.Cl [Compound 40, 4-[4-[(E)-2-Decenoyl]piperazin-1-yl]butanoic acid hydrochloride] | 61.6 |  |  | 203 to 205 |
| CCCCCCC/C=C/C(=O)N1CCN(c2ccc(N(C)C)cc2)CC1 [Compound 28, 1-((E)-2-Decenoyl)-4-(4-dimethylaminophenyl)piperazine] | 20.3 |  |  | 73 to 74 |
| CCCCCCC/C=C/C(=O)N1CCN(Cc2ccccc2)CC1 [Compound 26, 4-Benzyl-1-((E)-2-decenoyl)piperazine] | 24.1 |  | 1.48 | 62 to 63 |
| CCCCCCC/C=C/C(=O)N1CCN(C(C)C)CC1 [Compound 20, 1-((E)-2-Decenoyl)-4-isopropylpiperazine] | 26.9 |  | 1.27 |  |
| CCCCCCC/C=C/C(=O)N1CCCC1 [Compound 1, 1-((E)-2-Decenoyl)pyrrolidine] | 58.2 | 24.2 |  |  |
| CCCCCCC/C=C/C(=O)N1CCN(c2ccc(O)cc2)CC1 [Compound 46, 1-((E)-2-Decenoyl)-4-(4-hydroxyphenyl)piperazine] | 53.7 |  |  | 85 to 87 |
